# Assay results as given in paper PMC8333062, “Chemical tools for epichaperome-mediated interactome dysfunctions of the central nervous system” (Nature Communications, 2021).
# Read-outs that look alike come from different tables or passages of the source.
# Tests used:
# Experiment in all cases: scanEDGE off-target screen
# Type in all cases: binding
# 97 kinases [1] = target: T1, 97 kinases (Homo sapiens, UniProt P00519)
# T1 construct: purchased Ambit Biosciences (scanEDGE / KINOMEscan) scanEDGE 97 kinase panel; host or cells: T7 phage in E. coli BL21-derived host; remaining kinases in HEK-293 cells
# 97 kinases [2] = target: T2, 97 kinases (Homo sapiens, UniProt Q06187); settings: read-out: %Ctrl BTK
# T2 construct: purchased Ambit Biosciences (scanEDGE / KINOMEscan) scanEDGE 97 kinase panel; host or cells: T7 phage in E. coli BL21-derived host; remaining kinases in HEK-293 cells
# 97 kinases [3] = target: T3, 97 kinases (Homo sapiens, UniProt Q15759); settings: read-out: %Ctrl p38-beta
# T3 construct: purchased Ambit Biosciences (scanEDGE / KINOMEscan) scanEDGE 97 kinase panel; host or cells: T7 phage in E. coli BL21-derived host; remaining kinases in HEK-293 cells
# 97 kinases [4] = target: T4, 97 kinases (Homo sapiens, UniProt Q05397); settings: read-out: %Ctrl FAK
# T4 construct: purchased Ambit Biosciences (scanEDGE / KINOMEscan) scanEDGE 97 kinase panel; host or cells: T7 phage in E. coli BL21-derived host; remaining kinases in HEK-293 cells
# 97 kinases [5] = target: T5, 97 kinases (Homo sapiens, UniProt P04626); settings: read-out: %Ctrl ERBB2
# T5 construct: purchased Ambit Biosciences (scanEDGE / KINOMEscan) scanEDGE 97 kinase panel; host or cells: T7 phage in E. coli BL21-derived host; remaining kinases in HEK-293 cells
# 97 kinases [6] = target: T6, 97 kinases (Homo sapiens, UniProt P07949); settings: read-out: %Ctrl RET
# T6 construct: purchased Ambit Biosciences (scanEDGE / KINOMEscan) scanEDGE 97 kinase panel; host or cells: T7 phage in E. coli BL21-derived host; remaining kinases in HEK-293 cells
# 97 kinases [7] = target: T7, 97 kinases (Homo sapiens, UniProt Q9Y463); settings: read-out: %Ctrl DYRK1B
# T7 construct: purchased Ambit Biosciences (scanEDGE / KINOMEscan) scanEDGE 97 kinase panel; host or cells: T7 phage in E. coli BL21-derived host; remaining kinases in HEK-293 cells
# 97 kinases [8] = target: T8, 97 kinases (Homo sapiens, UniProt O15530); settings: read-out: %Ctrl PDPK1
# T8 construct: purchased Ambit Biosciences (scanEDGE / KINOMEscan) scanEDGE 97 kinase panel; host or cells: T7 phage in E. coli BL21-derived host; remaining kinases in HEK-293 cells
# 97 kinases [9] = target: T9, 97 kinases (Homo sapiens, UniProt Q02763); settings: read-out: %Ctrl TIE2
# T9 construct: purchased Ambit Biosciences (scanEDGE / KINOMEscan) scanEDGE 97 kinase panel; host or cells: T7 phage in E. coli BL21-derived host; remaining kinases in HEK-293 cells
# 97 kinases [10] = target: T10, 97 kinases (Homo sapiens, UniProt Q9P1W9); settings: read-out: %Ctrl PIM2
# T10 construct: purchased Ambit Biosciences (scanEDGE / KINOMEscan) scanEDGE 97 kinase panel; host or cells: T7 phage in E. coli BL21-derived host; remaining kinases in HEK-293 cells
# 97 kinases [11] = target: T11, 97 kinases (Homo sapiens, UniProt P10721, D816V); settings: read-out: %Ctrl KIT(D816V)
# T11 construct: purchased Ambit Biosciences (scanEDGE / KINOMEscan) scanEDGE 97 kinase panel; host or cells: T7 phage in E. coli BL21-derived host; remaining kinases in HEK-293 cells
# 97 kinases [12] = target: T12, 97 kinases (Homo sapiens, UniProt P43403); settings: read-out: %Ctrl ZAP70
# T12 construct: purchased Ambit Biosciences (scanEDGE / KINOMEscan) scanEDGE 97 kinase panel; host or cells: T7 phage in E. coli BL21-derived host; remaining kinases in HEK-293 cells
# 97 kinases [13] = target: T13, 97 kinases (Homo sapiens, UniProt Q9H4B4); settings: read-out: %Ctrl PLK3
# T13 construct: purchased Ambit Biosciences (scanEDGE / KINOMEscan) scanEDGE 97 kinase panel; host or cells: T7 phage in E. coli BL21-derived host; remaining kinases in HEK-293 cells
# 97 kinases [14] = target: T14, 97 kinases (Homo sapiens, UniProt O14757); settings: read-out: %Ctrl CHEK1
# T14 construct: purchased Ambit Biosciences (scanEDGE / KINOMEscan) scanEDGE 97 kinase panel; host or cells: T7 phage in E. coli BL21-derived host; remaining kinases in HEK-293 cells
# 97 kinases [15] = target: T15, 97 kinases (Homo sapiens, UniProt Q15303); settings: read-out: %Ctrl ERBB4
# T15 construct: purchased Ambit Biosciences (scanEDGE / KINOMEscan) scanEDGE 97 kinase panel; host or cells: T7 phage in E. coli BL21-derived host; remaining kinases in HEK-293 cells
# 97 kinases [16] = target: T16, 97 kinases (Homo sapiens, UniProt P27448); settings: read-out: %Ctrl MARK3
# T16 construct: purchased Ambit Biosciences (scanEDGE / KINOMEscan) scanEDGE 97 kinase panel; host or cells: T7 phage in E. coli BL21-derived host; remaining kinases in HEK-293 cells
# 97 kinases [17] = target: T17, 97 kinases (Homo sapiens, UniProt P08581); settings: read-out: %Ctrl MET
# T17 construct: purchased Ambit Biosciences (scanEDGE / KINOMEscan) scanEDGE 97 kinase panel; host or cells: T7 phage in E. coli BL21-derived host; remaining kinases in HEK-293 cells
# 97 kinases [18] = target: T18, 97 kinases (Homo sapiens, UniProt Q15831); settings: read-out: %Ctrl LKB1
# T18 construct: purchased Ambit Biosciences (scanEDGE / KINOMEscan) scanEDGE 97 kinase panel; host or cells: T7 phage in E. coli BL21-derived host; remaining kinases in HEK-293 cells
# 97 kinases [19] = target: T19, 97 kinases (Homo sapiens, UniProt P09619); settings: read-out: %Ctrl PDGFRB
# T19 construct: purchased Ambit Biosciences (scanEDGE / KINOMEscan) scanEDGE 97 kinase panel; host or cells: T7 phage in E. coli BL21-derived host; remaining kinases in HEK-293 cells
# 97 kinases [20] = target: T20, 97 kinases (Homo sapiens, UniProt P48736); settings: read-out: %Ctrl PIK3CG
# T20 construct: purchased Ambit Biosciences (scanEDGE / KINOMEscan) scanEDGE 97 kinase panel; host or cells: T7 phage in E. coli BL21-derived host; remaining kinases in HEK-293 cells
# 97 kinases [21] = target: T21, 97 kinases (Homo sapiens, UniProt P00519, E255K); settings: read-out: %Ctrl ABL1(E255K)-phosphorylated
# T21 construct: purchased Ambit Biosciences (scanEDGE / KINOMEscan) scanEDGE 97 kinase panel; host or cells: T7 phage in E. coli BL21-derived host; remaining kinases in HEK-293 cells
# 97 kinases [22] = target: T22, 97 kinases (Homo sapiens, UniProt P45983); settings: read-out: %Ctrl JNK1
# T22 construct: purchased Ambit Biosciences (scanEDGE / KINOMEscan) scanEDGE 97 kinase panel; host or cells: T7 phage in E. coli BL21-derived host; remaining kinases in HEK-293 cells
# 97 kinases [23] = target: T23, 97 kinases (Homo sapiens, UniProt P21802); settings: read-out: %Ctrl FGFR2
# T23 construct: purchased Ambit Biosciences (scanEDGE / KINOMEscan) scanEDGE 97 kinase panel; host or cells: T7 phage in E. coli BL21-derived host; remaining kinases in HEK-293 cells
# 97 kinases [24] = target: T24, 97 kinases (Homo sapiens, UniProt Q00536); settings: read-out: %Ctrl PCTK1
# T24 construct: purchased Ambit Biosciences (scanEDGE / KINOMEscan) scanEDGE 97 kinase panel; host or cells: T7 phage in E. coli BL21-derived host; remaining kinases in HEK-293 cells
# 97 kinases [25] = target: T25, 97 kinases (Homo sapiens, UniProt P51812); settings: read-out: %Ctrl RSK2(Kin.Dom.1-N-terminal)
# T25 construct: purchased Ambit Biosciences (scanEDGE / KINOMEscan) scanEDGE 97 kinase panel; host or cells: T7 phage in E. coli BL21-derived host; remaining kinases in HEK-293 cells
# 97 kinases [26] = target: T26, 97 kinases (Homo sapiens, UniProt P17612); settings: read-out: %Ctrl PKAC-alpha
# T26 construct: purchased Ambit Biosciences (scanEDGE / KINOMEscan) scanEDGE 97 kinase panel; host or cells: T7 phage in E. coli BL21-derived host; remaining kinases in HEK-293 cells
# 97 kinases [27] = target: T27, 97 kinases (Homo sapiens, UniProt P22607); settings: read-out: %Ctrl FGFR3
# T27 construct: purchased Ambit Biosciences (scanEDGE / KINOMEscan) scanEDGE 97 kinase panel; host or cells: T7 phage in E. coli BL21-derived host; remaining kinases in HEK-293 cells
# 97 kinases [28] = target: T28, 97 kinases (Homo sapiens, UniProt Q9HBH9); settings: read-out: %Ctrl MKNK2
# T28 construct: purchased Ambit Biosciences (scanEDGE / KINOMEscan) scanEDGE 97 kinase panel; host or cells: T7 phage in E. coli BL21-derived host; remaining kinases in HEK-293 cells
# 97 kinases [29] = target: T29, 97 kinases (Homo sapiens, UniProt P45984); settings: read-out: %Ctrl JNK2
# T29 construct: purchased Ambit Biosciences (scanEDGE / KINOMEscan) scanEDGE 97 kinase panel; host or cells: T7 phage in E. coli BL21-derived host; remaining kinases in HEK-293 cells
# 97 kinases [30] = target: T30, 97 kinases (Homo sapiens, UniProt P00533, L858R); settings: read-out: %Ctrl EGFR(L858R)
# T30 construct: purchased Ambit Biosciences (scanEDGE / KINOMEscan) scanEDGE 97 kinase panel; host or cells: T7 phage in E. coli BL21-derived host; remaining kinases in HEK-293 cells
# 97 kinases [31] = target: T31, 97 kinases (Homo sapiens, UniProt O96013); settings: read-out: %Ctrl PAK4
# T31 construct: purchased Ambit Biosciences (scanEDGE / KINOMEscan) scanEDGE 97 kinase panel; host or cells: T7 phage in E. coli BL21-derived host; remaining kinases in HEK-293 cells
# 97 kinases [32] = target: T32, 97 kinases (Homo sapiens, UniProt P30530); settings: read-out: %Ctrl AXL
# T32 construct: purchased Ambit Biosciences (scanEDGE / KINOMEscan) scanEDGE 97 kinase panel; host or cells: T7 phage in E. coli BL21-derived host; remaining kinases in HEK-293 cells
# 97 kinases [33] = target: T33, 97 kinases (Homo sapiens, UniProt O75116); settings: read-out: %Ctrl ROCK2
# T33 construct: purchased Ambit Biosciences (scanEDGE / KINOMEscan) scanEDGE 97 kinase panel; host or cells: T7 phage in E. coli BL21-derived host; remaining kinases in HEK-293 cells
# 97 kinases [34] = target: T34, 97 kinases (Homo sapiens, UniProt P35968); settings: read-out: %Ctrl VEGFR2
# T34 construct: purchased Ambit Biosciences (scanEDGE / KINOMEscan) scanEDGE 97 kinase panel; host or cells: T7 phage in E. coli BL21-derived host; remaining kinases in HEK-293 cells
# 97 kinases [35] = target: T35, 97 kinases (Homo sapiens, UniProt Q13177); settings: read-out: %Ctrl PAK2
# T35 construct: purchased Ambit Biosciences (scanEDGE / KINOMEscan) scanEDGE 97 kinase panel; host or cells: T7 phage in E. coli BL21-derived host; remaining kinases in HEK-293 cells
# 97 kinases [36] = target: T36, 97 kinases (Homo sapiens, UniProt P07333); settings: read-out: %Ctrl CSF1R
# T36 construct: purchased Ambit Biosciences (scanEDGE / KINOMEscan) scanEDGE 97 kinase panel; host or cells: T7 phage in E. coli BL21-derived host; remaining kinases in HEK-293 cells
# 97 kinases [37] = target: T37, 97 kinases (Homo sapiens, UniProt O15111); settings: read-out: %Ctrl IKK-alpha
# T37 construct: purchased Ambit Biosciences (scanEDGE / KINOMEscan) scanEDGE 97 kinase panel; host or cells: T7 phage in E. coli BL21-derived host; remaining kinases in HEK-293 cells
# T37 sequence (O15111 whole entry): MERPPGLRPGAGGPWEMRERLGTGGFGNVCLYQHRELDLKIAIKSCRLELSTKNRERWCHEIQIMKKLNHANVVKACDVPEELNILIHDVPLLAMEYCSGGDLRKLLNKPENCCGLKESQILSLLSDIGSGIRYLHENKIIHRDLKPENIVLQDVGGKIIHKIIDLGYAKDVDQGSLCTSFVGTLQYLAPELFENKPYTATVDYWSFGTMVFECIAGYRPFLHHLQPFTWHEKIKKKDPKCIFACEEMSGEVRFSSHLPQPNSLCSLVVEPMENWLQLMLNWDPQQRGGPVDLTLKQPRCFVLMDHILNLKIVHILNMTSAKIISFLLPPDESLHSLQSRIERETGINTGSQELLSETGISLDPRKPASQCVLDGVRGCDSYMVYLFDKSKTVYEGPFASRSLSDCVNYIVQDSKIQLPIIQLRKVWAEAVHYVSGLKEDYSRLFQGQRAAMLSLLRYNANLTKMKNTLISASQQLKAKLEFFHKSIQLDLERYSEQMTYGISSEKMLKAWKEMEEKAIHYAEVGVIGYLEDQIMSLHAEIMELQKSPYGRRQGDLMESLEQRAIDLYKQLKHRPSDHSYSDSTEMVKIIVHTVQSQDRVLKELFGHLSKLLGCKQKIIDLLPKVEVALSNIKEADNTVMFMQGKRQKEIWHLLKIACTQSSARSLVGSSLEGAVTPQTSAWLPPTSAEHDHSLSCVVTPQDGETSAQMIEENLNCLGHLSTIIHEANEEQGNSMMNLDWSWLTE
# T1 sequence (P00519 whole entry): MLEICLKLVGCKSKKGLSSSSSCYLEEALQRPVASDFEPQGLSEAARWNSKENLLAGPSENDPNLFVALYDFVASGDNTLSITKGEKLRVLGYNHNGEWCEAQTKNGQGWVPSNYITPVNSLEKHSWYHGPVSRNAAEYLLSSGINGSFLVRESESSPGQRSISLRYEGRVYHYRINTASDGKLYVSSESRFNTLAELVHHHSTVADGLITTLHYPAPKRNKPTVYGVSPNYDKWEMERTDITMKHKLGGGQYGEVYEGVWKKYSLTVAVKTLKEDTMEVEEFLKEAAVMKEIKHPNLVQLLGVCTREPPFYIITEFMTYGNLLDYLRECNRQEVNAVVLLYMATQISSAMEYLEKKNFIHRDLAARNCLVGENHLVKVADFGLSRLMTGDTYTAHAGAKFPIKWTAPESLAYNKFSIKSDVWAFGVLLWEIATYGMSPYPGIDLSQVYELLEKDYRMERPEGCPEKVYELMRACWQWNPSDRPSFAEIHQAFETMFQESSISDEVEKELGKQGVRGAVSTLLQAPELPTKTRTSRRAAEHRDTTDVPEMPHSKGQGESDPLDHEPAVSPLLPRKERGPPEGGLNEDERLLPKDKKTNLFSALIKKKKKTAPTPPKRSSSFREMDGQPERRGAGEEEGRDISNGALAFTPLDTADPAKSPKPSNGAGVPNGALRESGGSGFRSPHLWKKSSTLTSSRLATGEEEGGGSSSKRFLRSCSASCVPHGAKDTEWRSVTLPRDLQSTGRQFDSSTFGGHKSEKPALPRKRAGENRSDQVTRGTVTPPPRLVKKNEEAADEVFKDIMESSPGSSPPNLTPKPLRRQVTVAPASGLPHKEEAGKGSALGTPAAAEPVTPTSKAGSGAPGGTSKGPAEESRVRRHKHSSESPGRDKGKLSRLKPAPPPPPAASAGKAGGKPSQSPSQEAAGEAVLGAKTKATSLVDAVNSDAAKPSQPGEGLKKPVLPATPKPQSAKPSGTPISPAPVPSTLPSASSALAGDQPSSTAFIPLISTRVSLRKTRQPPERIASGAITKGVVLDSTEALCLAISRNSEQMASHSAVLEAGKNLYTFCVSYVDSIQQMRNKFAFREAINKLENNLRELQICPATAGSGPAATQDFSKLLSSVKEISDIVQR
# T24 sequence (Q00536 whole entry): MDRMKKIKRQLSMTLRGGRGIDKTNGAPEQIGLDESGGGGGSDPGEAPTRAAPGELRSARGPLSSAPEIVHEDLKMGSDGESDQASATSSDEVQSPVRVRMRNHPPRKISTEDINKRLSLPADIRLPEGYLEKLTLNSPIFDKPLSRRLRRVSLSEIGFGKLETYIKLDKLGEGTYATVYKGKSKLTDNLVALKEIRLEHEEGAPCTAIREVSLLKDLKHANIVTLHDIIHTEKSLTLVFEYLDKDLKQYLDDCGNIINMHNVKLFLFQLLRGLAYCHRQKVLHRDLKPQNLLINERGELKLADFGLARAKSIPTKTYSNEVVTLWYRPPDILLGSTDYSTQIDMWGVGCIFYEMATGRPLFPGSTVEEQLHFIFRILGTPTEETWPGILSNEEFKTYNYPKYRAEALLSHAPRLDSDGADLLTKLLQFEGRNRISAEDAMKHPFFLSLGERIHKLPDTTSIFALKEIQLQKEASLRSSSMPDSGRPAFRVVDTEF
# T8 sequence (O15530 whole entry): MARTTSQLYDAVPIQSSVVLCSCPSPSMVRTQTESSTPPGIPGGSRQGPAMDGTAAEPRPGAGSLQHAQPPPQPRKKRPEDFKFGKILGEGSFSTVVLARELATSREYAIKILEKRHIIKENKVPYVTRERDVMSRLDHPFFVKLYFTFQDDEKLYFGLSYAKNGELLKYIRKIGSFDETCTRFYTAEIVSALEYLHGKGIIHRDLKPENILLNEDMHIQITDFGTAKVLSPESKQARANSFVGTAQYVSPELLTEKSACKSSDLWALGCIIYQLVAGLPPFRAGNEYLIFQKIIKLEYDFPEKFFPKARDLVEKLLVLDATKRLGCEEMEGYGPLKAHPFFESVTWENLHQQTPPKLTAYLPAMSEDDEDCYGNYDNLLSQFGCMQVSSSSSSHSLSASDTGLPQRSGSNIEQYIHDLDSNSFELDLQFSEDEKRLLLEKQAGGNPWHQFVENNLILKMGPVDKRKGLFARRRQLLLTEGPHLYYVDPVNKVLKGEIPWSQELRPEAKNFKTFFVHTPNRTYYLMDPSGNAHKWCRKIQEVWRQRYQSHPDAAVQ
# T14 sequence (O14757 whole entry): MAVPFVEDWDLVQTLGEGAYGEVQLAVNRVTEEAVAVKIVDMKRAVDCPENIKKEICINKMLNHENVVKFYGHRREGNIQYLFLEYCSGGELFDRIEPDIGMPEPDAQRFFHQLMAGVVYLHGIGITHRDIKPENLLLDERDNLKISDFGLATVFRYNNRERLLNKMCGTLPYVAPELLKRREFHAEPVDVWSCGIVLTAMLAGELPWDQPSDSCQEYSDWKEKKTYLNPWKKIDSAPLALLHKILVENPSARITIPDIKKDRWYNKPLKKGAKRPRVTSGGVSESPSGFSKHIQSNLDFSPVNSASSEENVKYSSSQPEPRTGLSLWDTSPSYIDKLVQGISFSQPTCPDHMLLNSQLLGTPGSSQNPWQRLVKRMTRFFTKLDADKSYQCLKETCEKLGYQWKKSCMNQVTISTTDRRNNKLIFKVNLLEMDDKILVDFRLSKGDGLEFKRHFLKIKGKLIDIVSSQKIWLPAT
# T22 sequence (P45983 whole entry): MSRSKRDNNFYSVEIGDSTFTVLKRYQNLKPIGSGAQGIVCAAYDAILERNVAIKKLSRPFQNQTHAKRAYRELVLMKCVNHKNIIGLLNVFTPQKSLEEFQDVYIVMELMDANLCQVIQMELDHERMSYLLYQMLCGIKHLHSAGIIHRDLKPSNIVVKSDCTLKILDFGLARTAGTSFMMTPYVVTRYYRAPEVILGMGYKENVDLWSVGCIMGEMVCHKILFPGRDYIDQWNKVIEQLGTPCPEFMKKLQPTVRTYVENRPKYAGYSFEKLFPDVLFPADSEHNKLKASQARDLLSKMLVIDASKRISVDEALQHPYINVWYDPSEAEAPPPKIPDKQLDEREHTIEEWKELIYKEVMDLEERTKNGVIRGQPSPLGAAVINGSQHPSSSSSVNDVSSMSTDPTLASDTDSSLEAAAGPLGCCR
# T6 sequence (P07949 29-1114): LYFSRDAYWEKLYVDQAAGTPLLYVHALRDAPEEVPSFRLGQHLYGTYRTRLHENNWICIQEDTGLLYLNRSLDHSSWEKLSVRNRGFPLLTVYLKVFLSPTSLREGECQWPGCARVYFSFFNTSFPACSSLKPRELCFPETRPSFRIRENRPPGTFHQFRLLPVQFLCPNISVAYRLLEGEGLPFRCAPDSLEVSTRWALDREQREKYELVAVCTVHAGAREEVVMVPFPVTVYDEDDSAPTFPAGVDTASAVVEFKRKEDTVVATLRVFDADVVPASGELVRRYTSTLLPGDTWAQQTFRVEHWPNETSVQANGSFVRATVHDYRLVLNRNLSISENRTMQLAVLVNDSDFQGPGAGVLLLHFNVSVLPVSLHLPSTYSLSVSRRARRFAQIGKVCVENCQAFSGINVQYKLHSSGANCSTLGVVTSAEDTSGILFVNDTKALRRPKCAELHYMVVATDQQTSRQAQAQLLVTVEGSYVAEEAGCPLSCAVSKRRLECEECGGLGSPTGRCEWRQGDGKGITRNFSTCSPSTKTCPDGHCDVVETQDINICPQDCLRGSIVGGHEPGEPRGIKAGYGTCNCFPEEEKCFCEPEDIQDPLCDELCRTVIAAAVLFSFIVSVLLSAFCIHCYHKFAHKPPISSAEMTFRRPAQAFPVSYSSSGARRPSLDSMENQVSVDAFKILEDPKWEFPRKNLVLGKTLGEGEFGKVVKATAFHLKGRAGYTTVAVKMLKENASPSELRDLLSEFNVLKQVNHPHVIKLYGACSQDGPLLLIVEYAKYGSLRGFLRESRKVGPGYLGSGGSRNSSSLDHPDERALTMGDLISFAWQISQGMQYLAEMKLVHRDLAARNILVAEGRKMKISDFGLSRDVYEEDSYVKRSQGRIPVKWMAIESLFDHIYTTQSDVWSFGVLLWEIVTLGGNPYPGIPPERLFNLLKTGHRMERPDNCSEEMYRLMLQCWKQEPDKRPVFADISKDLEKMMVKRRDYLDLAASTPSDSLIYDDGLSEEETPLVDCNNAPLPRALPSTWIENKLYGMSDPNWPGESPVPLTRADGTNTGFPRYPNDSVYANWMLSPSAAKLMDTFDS
# T21 sequence (P00519 whole entry E255K): as the sequence (P00519 whole entry) above, with E255K counted along it
smiles,measurement,setting,value
CC(C)(C)CNCCn1c(Sc2cc3c(cc2I)OCO3)nc2c(N)ncnc21 [Compound 85],remaining binding at 10 µM,97 kinases [1]; read-out: %Ctrl ABL1-nonphosphorylated,50%
same,remaining binding at 10 µM,97 kinases [1]; read-out: %Ctrl ABL1-phosphorylated,70%
same,remaining binding at 10 µM,97 kinases [2],100%
same,remaining binding at 10 µM,97 kinases [3],89%
same,remaining binding at 10 µM,97 kinases [4],96%
same,remaining binding at 10 µM,97 kinases [5],100%
same,remaining binding at 10 µM,97 kinases [6],100%
same,remaining binding at 10 µM,97 kinases [7],36%
same,remaining binding at 10 µM,97 kinases [8],77%
same,remaining binding at 10 µM,97 kinases [9],100%
same,remaining binding at 10 µM,97 kinases [10],81%
same,remaining binding at 10 µM,97 kinases [11],93%
same,remaining binding at 10 µM,97 kinases [12],78%
same,remaining binding at 10 µM,97 kinases [13],88%
same,remaining binding at 10 µM,97 kinases [14],100%
same,remaining binding at 10 µM,97 kinases [15],100%
same,remaining binding at 10 µM,97 kinases [16],100%
same,remaining binding at 10 µM,97 kinases [17],100%
same,remaining binding at 10 µM,97 kinases [18],81%
same,remaining binding at 10 µM,97 kinases [19],98%
same,remaining binding at 10 µM,97 kinases [20],94%
same,remaining binding at 10 µM,97 kinases [21],80%
same,remaining binding at 10 µM,97 kinases [22],96%
same,remaining binding at 10 µM,97 kinases [23],63%
same,remaining binding at 10 µM,97 kinases [24],100%
same,remaining binding at 10 µM,97 kinases [25],84%
same,remaining binding at 10 µM,97 kinases [26],87%
same,remaining binding at 10 µM,97 kinases [27],95%
same,remaining binding at 10 µM,97 kinases [28],93%
same,remaining binding at 10 µM,97 kinases [29],93%
same,remaining binding at 10 µM,97 kinases [30],93%
same,remaining binding at 10 µM,97 kinases [31],100%
same,remaining binding at 10 µM,97 kinases [32],100%
same,remaining binding at 10 µM,97 kinases [33],97%
same,remaining binding at 10 µM,97 kinases [34],98%
same,remaining binding at 10 µM,97 kinases [35],97%
same,remaining binding at 10 µM,97 kinases [36],94%
same,remaining binding at 10 µM,97 kinases [37],99%
